Test system: MCF-7 cells
Experiment: MCF-7 cell proliferation assay (BrdU incorporation)
Type: cell-based
Details: MCF-7 proliferation, 24 hours, in the absence of estradiol or in the presence of 1 nM estradiol
Experimental: MCF-7 cells are a common line of breast cancer cells used to determine in vitro estrogen receptor agonist/antagonist activity (MacGregor and Jordan 1998). The effect of a test compound on the proliferation of MCF-7 cells, as measured by the incorporation of 5-bromo-2′-deoxyuridine (“BrdU”) in a chemiluminescent assay format, can be used to determine the relative agonist/antagonist activity of the test compound. MCF-7 cells (ATCC HTB-22) are mainatined in log-phase culture. The cells are plated and incubated in phenol-free medium to avoid external sources of iS estrogenic stimulus (MacGregor and Jordan 1998). The test compound is added at varying concentrations to determine an IC50, for the compound. […]
This assay determines the estrogen agonist/antagonist activity of a test compound by the effect of the test compound on the proliferation of MCF-7 cells as measured by the incorporation of 5-bromo-2′-deoxyuridine (“BrdU”) in a chemiluminescent assay format. […]
The cells were cultured in the presence of test compounds for 24 hours at 37° C. and under a 5% CO2 atmosphere Cell proliferation was detected by measuring the level of BrdU incorporation into DNA. […] The plates were shaken for ten minutes at room temperature, and the resulting chemiluminescent signals were counted using a TRILUX scintillation counter.

Row | Compound | concentration at which activity was demonstrated
1 | CCc1c(-c2ccc(O)cc2)nn(C2CCC2)c1-c1ccc(O)cc1 [4-[1-cyclobutyl-4-ethyl-5-(4-hydroxyphenyl)pyrazol-3-yl]phenol] | less than one hundred
2 | CCc1c(-c2ccc(O)cc2)nn(-c2ccccc2C(F)(F)F)c1-c1ccc(O)cc1 [4-{4-ethyl-5-(4-hydroxyphenyl)-1-[2-(trifluoromethyl)phenyl]pyrazol-3-yl}phenol] | less than one hundred
